From patent publication US20240352536A1, “Assay for Predicting Risk of Capecitabine-Induced Toxicity in a Subject” (Oxford University Innovation Ltd., priority 2021, published 2024)

Legend:
[1] = target: T1, dihydropyrimidine dehydrogenase (DPYD) (Homo sapiens, UniProt Q12882); settings: cited from earlier work
T1 construct: degraded in the liver by dihydropyrimidine dehydrogenase (DPYD); host or cells: liver (in vivo, endogenous enzyme)
T1 sequence (Q12882 4-1025): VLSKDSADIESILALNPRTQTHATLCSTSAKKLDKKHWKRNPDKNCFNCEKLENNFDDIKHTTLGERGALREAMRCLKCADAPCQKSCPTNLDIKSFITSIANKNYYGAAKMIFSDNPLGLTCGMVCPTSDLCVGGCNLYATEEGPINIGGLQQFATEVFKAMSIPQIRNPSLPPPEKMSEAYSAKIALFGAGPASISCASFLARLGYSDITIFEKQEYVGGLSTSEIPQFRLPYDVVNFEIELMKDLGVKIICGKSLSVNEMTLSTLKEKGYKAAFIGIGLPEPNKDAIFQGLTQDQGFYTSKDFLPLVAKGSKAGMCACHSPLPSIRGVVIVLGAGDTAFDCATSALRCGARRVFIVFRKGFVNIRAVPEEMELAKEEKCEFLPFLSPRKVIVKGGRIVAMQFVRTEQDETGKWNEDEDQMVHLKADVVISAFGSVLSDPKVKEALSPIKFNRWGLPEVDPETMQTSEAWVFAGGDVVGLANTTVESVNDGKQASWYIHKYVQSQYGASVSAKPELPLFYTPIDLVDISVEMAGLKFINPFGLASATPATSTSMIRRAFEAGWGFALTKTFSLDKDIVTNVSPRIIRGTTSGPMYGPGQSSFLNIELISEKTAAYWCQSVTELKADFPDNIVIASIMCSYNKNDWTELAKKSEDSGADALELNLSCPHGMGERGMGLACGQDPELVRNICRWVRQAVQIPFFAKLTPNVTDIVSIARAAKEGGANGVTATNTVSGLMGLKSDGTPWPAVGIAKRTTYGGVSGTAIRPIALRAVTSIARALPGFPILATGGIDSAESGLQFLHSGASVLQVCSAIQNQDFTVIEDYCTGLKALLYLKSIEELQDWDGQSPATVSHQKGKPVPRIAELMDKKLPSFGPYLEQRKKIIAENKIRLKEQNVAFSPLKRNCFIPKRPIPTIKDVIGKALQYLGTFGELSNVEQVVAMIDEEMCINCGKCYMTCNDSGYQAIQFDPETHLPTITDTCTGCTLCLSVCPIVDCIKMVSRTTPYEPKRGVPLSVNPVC

[2] = cited from earlier work
[3] = QUASAR2 trial: adverse events graded after each treatment cycle with NCI CTCAE version 3.0; assay type: in vivo, human
Protocol: The QUASAR2 study (http://www.octo-oxford.org.uk/alltrials/infollowup/q2.html; http://www.controlled-trials.com/ISRCTN45133151/) is a phase III randomised controlled trial of capecitabine (Xeloda) (1250 mg/m2 twice daily d1-14 every 3 weeks, total of 8 cycles)+/−bevacizumab (7.5 mg/kg every three weeks) following resection of stage II/III CRC. Patients were entered into the study between July 2005 and December 2011 at 123 UK and 81 non-UK sites. Of 1119 patients with blood collected as of July 2010, 1046 were selected for study based on availability of clinical data and informed consent.
Adverse events were graded following each treatment cycle using the NCI Common Toxicity Criteria for Adverse Events (CTCAE) version 3.0. Common capecitabine-induced toxicities—diarrhoea, nausea and vomiting, mucositis/stomatitis, neutropaenia, thrombocytopaenia, and HFS—were analysed individually and also in combination as “global” toxicity. Adverse events were categorised as low (CTCAE grade 0/1/2) and high (CTCAE grade 3/4/5 at any treatment cycle). Hypertension and proteinuria were clearly related to bevacizumab (˜10-fold higher incidence) and were not included in the analysis.
Genome wide SNP genotypes and per treatment cycle toxicity data was available for 930 patients with stage II and III colorectal cancer treated with capecitabine in the QUASAR2 trial. […] Genotype data was imputed using IMPUTE2 and the UK10K and 1000 genomes merged reference panels. Common Terminology Criteria for Adverse Events (CTCAE) v3.0 was used to grade toxicity events. Patients with ≥grade 3 toxicities in the first two treatment cycles and across all cycles were coded as cases for analysis. Binary coded variables were generated for capecitabine-induced toxicities: diarrhoea, haematological, hand-foot syndrome, mucositis and vomiting. The mucositis toxicity variable captured cases with mucositis and/or stomatitis and haematological toxicity consisted of neutropenia and/or thrombocytopenia cases. A global toxicity phenotype was also analysed with cases having any grade 3 event of one of the aforementioned toxicities. The study was powered at 80% to detect variants with MAF>10% having effect sizes≥2. Association testing was performed using SNPTEST v2.5. The two QUASAR2 trial arms (capecitabine alone and capecitabine plus bevacizumab) were analysed separately and then meta-analysed using META v1.7. […] Gene annotation of the outputs was performed using Variant Effect Predictor (VEP) and ANNOVAR to determine the impact of each variant and distance to the nearest gene. Top independent SNPs were identified from multi-SNP-based conditional and joint association (COJO) analysis using Genome-wide Complex Trait Analysis (GCTA). V1.93.2. Receiver operator curve (ROC) analysis was performed in statistical software R.

[4] = early onset, Cycles 1 & 2 (n = 930), QUASAR 2

## O=c1[nH]cc(F)c(=O)[nH]1 [5-FU, 5-fluorouracil]
[1]
  share of drug degraded in the liver by DPYD prior to activation: ~80%
[2]; overall
  mortality (Grade 5, CTCAE version 3.0) associated with use: 0.5-1.0%
[2]; patients administered 5-FU-based therapy
  patients who suffer substantial toxicities (Grade 3 or above, CTCAE version 3.0): 10-30%
[2]; patients with colorectal cancer, serious toxicities from 5-FU
  fatality rate: approximately 1%
[2]; patients with colorectal cancer
  share of patients who experienced serious (CTCAE≥grade 3) toxicities: Approximately a third

## CCCCCOC(=O)Nc1nc(=O)n(C2OC(C)C(O)C2O)cc1F (centres unmarked) [capecitabine, pentyl [1-(3,4-dihydroxy-5-methyltetrahydrofuran-2-yl)-5-fluoro-2-oxo-1H-pyrimidin-4-yl]carbamate]
[3]; [4]
  Diarrhoea, Grade 0-2 (%): 92.9%
  Diarrhoea, Grade 3-4 (%): 6.9%
  Global toxicity, Grade 0-2 (%): 84.6%
  Global toxicity, Grade 3-4 (%): 15.3%
  Haematological toxicity, Grade 0-2 (%): 98.4%
  Haematological toxicity, Grade 3-4 (%): 1.3%
  Hand-foot syndrome, Grade 0-2 (%): 91.4%
  Hand-foot syndrome, Grade 3-4 (%): 8.3%
  Mucositis, Grade 0-2 (%): 98.7%
  Mucositis, Grade 3-4 (%): 1.1%
  Vomiting, Grade 0-2 (%): 98.7%
  Vomiting, Grade 3-4 (%): 0.9%
[2]; capecitabine patients
  share of patients who suffer dose-limiting levels of drug-induced adverse events: approximately one third
[2]; capecitabine schedules
  mortality from rapid onset of toxicity relative to infusional and bolus 5-FU regimens (0.5% to 2%): about half that number

## bevacizumab: given with capecitabine in one QUASAR2 arm (7.5 mg/kg every three weeks)
[3]; QUASAR2, capecitabine plus bevacizumab arm versus capecitabine alone
  higher incidence of hypertension and proteinuria: ~10 fold
